Common to all, as to assay: NCI-60 cell line screen, 48 h
Test [1] relates to 786-0.
Test [2] has as its system CCRF-CEM.
For test [3], the system named is SN12C.
The test system of test [4] is MCF7.
Test [5] relates to DU-145.
Test [6] relates to NCI-H23.
The subject of test [7] is KM12.
Test [8] concerns BT-549.
Test [9] concerns NCI/ADR-RES.
The subject of test [10] is T47D.
Test [11] concerns SK-MEL-5.
The test system of test [12] is MOLT-4.
In test [13] the test system is HOP-62.
In test [14] the test system is SF-295.
Test [15] concerns SK-MEL-2.
The test system of test [16] is NCI-H460.
Test [17] has as its system ACHN.
The subject of test [18] is M14.
Test [19] concerns Hs-578T.
Test [20] relates to HCT-15.

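Protocol summary: plate cells (96-well), add compound at 5 concentrations, incubate 48 h, interpolate endpoints linearly. The concentration for 50% growth inhibition is given as GI50.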 Activity calls are given as the source filed them. Rule as the data show it: active = GI50 up to about 1.1 µM and inactive = higher.

For `Brc1ccc2c(-c3nc(-c4c[nH]c5ccccc45)cs3)c[nH]c2c1`, the GI50 was 21 µM (inactive) in test [1]; 27.4 µM (inactive) in [2]; 42.9 µM (inactive) in [3]; 28.8 µM (inactive) in test [4]; 23.4 µM (inactive) in [5]; 24.9 µM (inactive) in test [6]. Besides, the GI50 is 10 µM (inactive) in test [7]; 34.8 µM (inactive) in [8]; 27 µM (inactive) in test [9]; 30.9 µM (inactive) in [10]; 22.1 µM (inactive) in test [11]; 26.7 µM (inactive) in test [12]. In addition, the GI50 was > 45.8 µM (inactive) in test [13]; 20.3 µM (inactive) in test [14]; > 61.2 µM (inactive) in test [15]; 11.8 µM (inactive) in test [16]; 43.1 µM (inactive) in [17]; 51.6 µM (inactive) in [18]. In addition, the figures for the GI50 in test [19] and in test [20] were > 100 µM (inactive) and 16.8 µM, respectively.

Turning to `COC(=O)Nc1nc2cc(NS(=O)(=O)c3cccs3)ccc2[nH]1`, the GI50 in [1] was 34.3 µM (inactive); in test [2] it was 34.8 µM (inactive); in test [3] it was 39.1 µM (inactive); in test [4] it was 17.8 µM (inactive); in test [5], 47.3 µM (inactive); in test [6], 30.5 µM (inactive). For the same compound, the GI50 in test [7] is 13.7 µM (inactive); in test [8] it was 71.8 µM (inactive); in test [9], 25.1 µM (inactive); in test [10], 28.7 µM (inactive); in test [11], 18.6 µM (inactive); in test [12], 13.6 µM (inactive). The GI50 in [13] was 26.4 µM (inactive); in test [14], 24.9 µM (inactive); in [15] it was 76.6 µM (inactive); in test [16], 32.2 µM (inactive); in test [17], 42.8 µM (inactive); in [18], 21.5 µM (inactive). Also, the values for the GI50 in test [19] and in test [20] were 10.4 µM (inactive) and 14.3 µM, respectively.

Turning to `Cc1nnc(Sc2nc(C#N)c(C#N)nc2Sc2nnc(C)s2)s1`, the GI50 was 4.13 µM (inactive) in [1]; 2.1 µM (inactive) in test [2]; 9.33 µM (inactive) in test [3]; 5.82 µM (inactive) in test [4]; 14.9 µM (inactive) in test [5]; 17.5 µM (inactive) in [6]. The GI50 in [7] is 23.8 µM (inactive); in test [8] it was 5.61 µM (inactive); in test [9] it was 17.7 µM (inactive); in test [10] it was 2.54 µM (inactive); in [11] it was 20.6 µM (inactive); in test [12], 2.25 µM (inactive). Besides, the GI50 in [13] was 23.3 µM (inactive); in [14] it was 22.8 µM (inactive); in test [15], 18.4 µM (inactive); in test [16] it was 28.6 µM (inactive); in [17], 2.93 µM (inactive); in [18] it was 8.2 µM (inactive). Also, the GI50 in [19] is 14.6 µM (inactive); in test [20] it was 2.6 µM.

Consider `CN(C)c1ncnc2c1ncn2C1C=CC(COS(N)(=O)=O)C1` (stereo not given), for which the GI50 in [1] is > 100 µM (inactive); in [2], > 100 µM (inactive); in test [3] it was > 100 µM (inactive); in test [4] it was > 100 µM (inactive); in test [5], > 100 µM (inactive); in test [6] it was 80.9 µM (inactive). Also, the GI50 in test [7], in test [8], in [9], in [10], in test [11] and in test [12] was > 100 µM (inactive) in each case. Besides, the GI50 in test [13], in test [14], in [15], in test [16], in test [17] and in test [18] was > 100 µM (inactive) each time. The values for the GI50 in [19] and in test [20] were 44.5 µM (inactive) and above 100 µM, respectively.

`Cc1cc2c(cc1C(=O)c1ccc(N)cc1)OCO2`: the GI50 in [1] was 34.6 µM (inactive); in test [2] it was 39.1 µM (inactive); in test [3], 49.5 µM (inactive); in test [4], 20.1 µM (inactive); in [5], 55 µM (inactive); in test [6], > 100 µM (inactive). In addition, the GI50 in test [7] is 21.4 µM (inactive); in test [8], 48.8 µM (inactive); in [9] it was 25.1 µM (inactive); in test [10], 28 µM (inactive); in test [11], 20 µM (inactive); in test [12] it was 40.1 µM (inactive). Moreover, the GI50 was 58.7 µM (inactive) in test [13]; 21.9 µM (inactive) in test [14]; 23.9 µM (inactive) in [15]; 33.7 µM (inactive) in [16]; > 100 µM (inactive) in [17]; 29.4 µM (inactive) in [18]. The values for the GI50 in test [19] and in test [20] were 48 µM (inactive) and 30.4 µM, respectively.

On to `O=C(NN=C1NCCN1)c1ccco1`, for which the GI50 in [1], in [2], in [3], in [4], in test [5] and in test [6] was > 100 µM (inactive) throughout. Besides, the GI50 in [7], in test [8], in test [9], in [10], in test [11] and in [12] was > 100 µM (inactive) each time. Further, the GI50 in [13], in test [14], in test [15], in test [16], in [17] and in test [18] was > 100 µM (inactive) throughout. The GI50 in test [19] is > 100 µM (inactive); in [20], above 100 µM.

For the compound `Nc1nc2cc(CNc3ccc(C(=O)NC(CCC(=O)O)C(=O)O)cc3)ccc2nc1-c1ccccc1` (stereo not given), the GI50 in test [1], in test [2], in test [3], in test [4], in [5] and in test [6] was > 10 µM (inactive) in each case. Moreover, the GI50 in [7], in test [8], in test [9], in test [10], in test [11] and in [12] was > 10 µM (inactive) in each case. The GI50 in test [13], in test [14], in test [15], in [16], in [17] and in test [18] was > 10 µM (inactive) each time. Further, the results for the GI50 in test [19] and in [20] were > 10 µM (inactive) and above 10 µM, respectively.

For the compound `O=C1NC(=O)/C(=C/c2ccc(S(=O)(=O)N/N=C/c3ccc(Cl)cc3)cc2)N1`, the GI50 in test [1], in test [2], in test [3], in [4], in test [5] and in test [6] was > 100 µM (inactive) throughout. Also, the GI50 in test [7], in test [8], in [9], in test [10], in [11] and in test [12] was > 100 µM (inactive) each time. Further, the GI50 in [13], in test [14], in [15], in test [16], in test [17] and in test [18] was > 100 µM (inactive) throughout. In addition, the GI50 in [19] was > 100 µM (inactive); in test [20], above 100 µM.

As for `CC(=O)NS(=O)(=O)c1ccc(NCc2cccc3c(=O)c4ccc(Cl)cc4oc23)cc1`, the GI50 is > 55.8 µM (inactive) in test [1]; 4.2 µM (inactive) in test [2]; > 65.6 µM (inactive) in [3]; 8.3 µM (inactive) in [4]; 61 µM (inactive) in test [5]; 33 µM (inactive) in test [6]. Besides, the GI50 in test [7] is 20.5 µM (inactive); in test [8], > 54.2 µM (inactive); in test [9], 31.6 µM (inactive); in test [10], > 92.3 µM (inactive); in [11], 40.1 µM (inactive); in test [12], 11.5 µM (inactive). Also, the GI50 in test [13] was 39.1 µM (inactive); in test [14], 51.4 µM (inactive); in test [15], 46 µM (inactive); in test [16], 19.7 µM (inactive); in [17], 38.5 µM (inactive); in test [18] it was 41.1 µM (inactive). Moreover, the GI50 was 25.4 µM (inactive) in test [19] and 7.76 µM in test [20].

Regarding `CN1CC=C(C#CC(C)(C)O)CC1`, the GI50 in test [1], in test [2], in test [3], in test [4], in [5] and in test [6] was > 37.5 µM (inactive) in each case. For the same compound, the GI50 in [7], in test [8], in [9], in test [10], in [11] and in test [12] was > 37.5 µM (inactive) in each case. In addition, the GI50 in test [13], in test [14], in test [15], in test [16], in test [17] and in test [18] was > 37.5 µM (inactive) each time. The GI50 in test [19] was > 37.5 µM (inactive); in test [20], above 37.5 µM.
